Source: paper PMC5444695, “CM363, a novel naphthoquinone derivative which acts as multikinase modulator and overcomes imatinib resistance in chronic myelogenous leukemia” (Oncotarget, 2016)
Counter-ions that a name gives are not always drawn.

What was measured:
K562 cells = experiment: Live-cell imaging (IncuCyte HD) of proliferation and cytotoxicity, K562 cells; type: cell-based, human; conditions: Homo sapiens, 96 h; IM sensitive K562, continuous exposure over 4-day period, area under curve; read-out: IC50AUC, cytostatic effect on cell growth
Method: Kinetic measurements of cell proliferation and cytotoxicity were carried out by using the IncuCyte^TM HD real time imaging system (Essen BioScience, Hertfordshire, United Kingdom). After seeding in a polylysine-coated 96 well-plates, K562 cells were treated with different concentrations of compound. This IncuCyte™ microscope permits the acquisition of automated phase contrast images. Individual images are processed by an imbedded contrast-based confluence algorithm, which compute monolayer confluence for each image and at each time point. Multiple images are collected per well and averaged to provide a representative statistical measure of confluence.

pTyr694-Stat5 (pYStat5) = experiment: Immunoblotting of constitutive pYStat5 in K562 cells; type: cell-based; conditions: Homo sapiens; K562, 0.05 μM IM, 3 h
Method: Then, cells were rinsed with cold PBS-vanadate (1 mM) followed by preparation of whole lysis extract with RIPA (Pierce, Illinois, USA). Equal amounts of each sample were separated by SDS-PAGE and transfered onto nitrocellulose membranes. After being blocked with 1% BSA-1% Blotto (anti-phospho-antibodies) (Santa Cruz Biotechnology, CA, USA) or 5% blotto (anti-total-antibodies) (Santa Cruz Biotechnology, CA, USA) (both diluted in Tris buffered saline with 0.05% Tween 20), membranes were immunoblotted overnight at 4°C with dilution (1:1000) in the same buffer of blocking of primary phosphoprotein or total protein antibodies. […] To control for differences in loading and transfer efficiency across membranes, membranes were incubated with a monoclonal mouse anti-beta actin antibody (Santa Cruz Biotechnology, CA, USA). The phosphoprotein array analysis of K562 cells was carried out by using the Profiler Human Phospho-Kinase Array Kit ARY003B (R&D Systems, Minneapolis, MN, USA) according to the manufacturer`s instructions.

For `Cc1ccc(NC(=O)c2ccc(CN3CCN(C)CC3)cc2)cc1Nc1nccc(-c2cccnc2)n1` [IM, imatinib mesylate, reference compound], the IC50 (K562 cells) was 200 ± 100 nM and the inhibition at 0.05 µM (pTyr694-Stat5 (pYStat5)) was 40%.
